Measurements published in ChEMBL document CHEMBL5726221, “4,6-substituted-pyrazolo[1,5-a]pyrazines as janus kinase inhibitors” (2019).

Columns and labels:
[1] = molecular target: Non-receptor tyrosine-protein kinase TYK2 (Homo sapiens, UniProt P29597); experiment: Tyk2 Inhibition Assay: Compounds of Formula I were screened for their ability to inhibit Tyk2 using the general enzyme inhibition assay method, in which the assay mixture contained 1 mM ATP, 8 μM Omnia Y12 peptide (Catalog # IVGN KPZ3121C; Invitrogen Corporation, Carlsbad, Calif.) and 1 nM Tyk2 in a total volume of 25 μL. Human Tyk2 kinase domain, comprising amino acids 886 to 1187 with 10 additional histidine residues (histidine tag) on the carboxy terminus, was expressed and purified from bacculovirus in-house at Array BioPharma Inc. (Boulder, Colo.). The histidine tag was cleaved after purification using standard conditions.
Chain of Non-receptor tyrosine-protein kinase TYK2 (P29597 whole entry, the tested form may be a part): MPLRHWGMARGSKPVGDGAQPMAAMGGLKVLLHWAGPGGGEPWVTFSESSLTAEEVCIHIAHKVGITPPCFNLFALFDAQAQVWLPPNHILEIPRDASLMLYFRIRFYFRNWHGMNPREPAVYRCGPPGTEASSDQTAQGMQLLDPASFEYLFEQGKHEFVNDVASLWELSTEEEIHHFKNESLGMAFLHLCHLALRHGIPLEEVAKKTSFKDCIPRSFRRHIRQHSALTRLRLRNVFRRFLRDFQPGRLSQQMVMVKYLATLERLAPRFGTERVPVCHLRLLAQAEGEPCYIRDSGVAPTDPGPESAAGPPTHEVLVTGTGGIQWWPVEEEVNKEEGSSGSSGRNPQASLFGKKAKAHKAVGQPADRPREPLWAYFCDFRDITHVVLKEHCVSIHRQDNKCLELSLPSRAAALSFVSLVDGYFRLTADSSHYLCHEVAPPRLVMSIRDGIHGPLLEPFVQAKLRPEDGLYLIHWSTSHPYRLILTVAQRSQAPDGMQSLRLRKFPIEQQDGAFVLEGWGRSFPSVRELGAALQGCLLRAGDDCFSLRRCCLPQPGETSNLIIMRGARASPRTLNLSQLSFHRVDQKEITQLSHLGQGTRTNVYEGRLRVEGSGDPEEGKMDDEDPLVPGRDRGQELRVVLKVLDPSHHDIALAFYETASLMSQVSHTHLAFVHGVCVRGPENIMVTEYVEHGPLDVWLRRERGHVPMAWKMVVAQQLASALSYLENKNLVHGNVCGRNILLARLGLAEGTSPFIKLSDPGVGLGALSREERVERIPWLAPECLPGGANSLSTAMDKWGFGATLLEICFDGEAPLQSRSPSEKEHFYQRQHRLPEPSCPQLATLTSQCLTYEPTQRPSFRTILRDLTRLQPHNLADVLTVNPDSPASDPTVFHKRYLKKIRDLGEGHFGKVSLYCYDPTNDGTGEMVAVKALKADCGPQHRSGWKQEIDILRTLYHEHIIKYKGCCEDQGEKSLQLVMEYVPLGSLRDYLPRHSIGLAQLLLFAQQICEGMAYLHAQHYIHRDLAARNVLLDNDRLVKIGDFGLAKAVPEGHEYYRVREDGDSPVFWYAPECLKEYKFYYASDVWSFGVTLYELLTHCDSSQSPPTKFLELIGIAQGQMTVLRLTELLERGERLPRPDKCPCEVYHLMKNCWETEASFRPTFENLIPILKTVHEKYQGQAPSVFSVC

[2] = molecular target: T1, Tyrosine-protein kinase JAK3 (Homo sapiens, UniProt P52333); experiment: JAK3 Inhibition Assay: Compounds of Formula I were screened for their ability to inhibit JAK3 using the general enzyme inhibition assay method, in which the assay mixture contained 1 mM ATP, 10 μM Omnia® Y7 peptide (Catalog # IVGN KNZ3071C, Invitrogen Corporation, Carlsbad, Calif.) and 2 nM JAK3 in a total volume of 25 μL. JAK3 was purchased from Invitrogen Corporation, Carlsbad, Calif. (catalog # IVGN PV4080).
T1 sequence (P52333 whole entry): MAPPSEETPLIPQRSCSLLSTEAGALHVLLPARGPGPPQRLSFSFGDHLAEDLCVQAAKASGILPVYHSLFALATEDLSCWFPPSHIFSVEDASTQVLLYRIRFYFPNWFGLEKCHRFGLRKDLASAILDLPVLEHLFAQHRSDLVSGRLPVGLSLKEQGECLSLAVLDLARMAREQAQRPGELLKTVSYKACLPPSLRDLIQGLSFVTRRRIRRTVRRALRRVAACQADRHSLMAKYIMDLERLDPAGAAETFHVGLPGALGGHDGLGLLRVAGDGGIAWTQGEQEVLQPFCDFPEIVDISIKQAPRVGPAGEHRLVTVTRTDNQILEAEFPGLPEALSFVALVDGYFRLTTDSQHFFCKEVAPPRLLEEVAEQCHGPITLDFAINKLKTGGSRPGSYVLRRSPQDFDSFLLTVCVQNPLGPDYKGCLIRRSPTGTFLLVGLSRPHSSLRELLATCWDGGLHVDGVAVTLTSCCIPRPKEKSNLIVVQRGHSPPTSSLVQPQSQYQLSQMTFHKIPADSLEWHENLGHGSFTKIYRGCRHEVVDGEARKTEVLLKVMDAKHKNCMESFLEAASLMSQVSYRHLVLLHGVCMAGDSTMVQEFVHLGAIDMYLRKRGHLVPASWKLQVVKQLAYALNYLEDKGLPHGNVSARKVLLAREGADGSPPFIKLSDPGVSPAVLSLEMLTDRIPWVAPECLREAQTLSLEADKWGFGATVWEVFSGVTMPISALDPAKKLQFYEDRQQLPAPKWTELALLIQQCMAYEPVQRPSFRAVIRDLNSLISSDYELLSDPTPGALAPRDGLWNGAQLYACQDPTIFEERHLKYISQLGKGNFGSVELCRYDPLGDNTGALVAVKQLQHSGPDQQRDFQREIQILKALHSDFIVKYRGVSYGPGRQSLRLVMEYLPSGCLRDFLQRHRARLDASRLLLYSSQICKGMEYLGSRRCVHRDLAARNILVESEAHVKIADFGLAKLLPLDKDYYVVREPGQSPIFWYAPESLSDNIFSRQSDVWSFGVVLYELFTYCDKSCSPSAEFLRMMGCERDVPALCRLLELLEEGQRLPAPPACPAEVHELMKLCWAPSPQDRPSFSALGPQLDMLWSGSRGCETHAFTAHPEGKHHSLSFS

SMILES | IC50 [1] | IC50 [2]
CCC(CC)n1cc(-c2nc(-c3cnn([C@H]4C[C@@H](O)[C@@H](O)C4)c3)cn3nccc23)cn1 | in the range around 0.055 µM | in the range around 5.5 µM
CCC(CC)n1cc(-c2nc(-c3cnn(CC4CC(CO)C4)c3)cn3nccc23)cn1 (centres undefined) |  | in the range around 5.5 µM
CCC(CC)n1cc(-c2nc(-c3cnn([C@H]4C[C@@](O)(CO)C4)c3)cn3nccc23)cn1 |  | in the range around 5.5 µM
